Experimental data published in patent publication US10040781B2, “Tank-binding kinase inhibitor compounds” (Gilead Sciences, Inc., priority 2014, dated 2018).
Read-outs that look alike come from different tables or passages of the source.

How the values were obtained:
IKKε = IKKε (Homo sapiens (Human), UniProt Q14164); test: IKKε TR-FRET enzymatic assay; type: biochemical; settings: read-out: IKKe IC50
hJAK2 = hJAK2 (Homo sapiens (Human), UniProt O60674); test: hJAK2 LANCE TR-FRET enzymatic assay; type: biochemical; settings: read-out: JAK2 IC50
Chain of hJAK2 (O60674 whole entry): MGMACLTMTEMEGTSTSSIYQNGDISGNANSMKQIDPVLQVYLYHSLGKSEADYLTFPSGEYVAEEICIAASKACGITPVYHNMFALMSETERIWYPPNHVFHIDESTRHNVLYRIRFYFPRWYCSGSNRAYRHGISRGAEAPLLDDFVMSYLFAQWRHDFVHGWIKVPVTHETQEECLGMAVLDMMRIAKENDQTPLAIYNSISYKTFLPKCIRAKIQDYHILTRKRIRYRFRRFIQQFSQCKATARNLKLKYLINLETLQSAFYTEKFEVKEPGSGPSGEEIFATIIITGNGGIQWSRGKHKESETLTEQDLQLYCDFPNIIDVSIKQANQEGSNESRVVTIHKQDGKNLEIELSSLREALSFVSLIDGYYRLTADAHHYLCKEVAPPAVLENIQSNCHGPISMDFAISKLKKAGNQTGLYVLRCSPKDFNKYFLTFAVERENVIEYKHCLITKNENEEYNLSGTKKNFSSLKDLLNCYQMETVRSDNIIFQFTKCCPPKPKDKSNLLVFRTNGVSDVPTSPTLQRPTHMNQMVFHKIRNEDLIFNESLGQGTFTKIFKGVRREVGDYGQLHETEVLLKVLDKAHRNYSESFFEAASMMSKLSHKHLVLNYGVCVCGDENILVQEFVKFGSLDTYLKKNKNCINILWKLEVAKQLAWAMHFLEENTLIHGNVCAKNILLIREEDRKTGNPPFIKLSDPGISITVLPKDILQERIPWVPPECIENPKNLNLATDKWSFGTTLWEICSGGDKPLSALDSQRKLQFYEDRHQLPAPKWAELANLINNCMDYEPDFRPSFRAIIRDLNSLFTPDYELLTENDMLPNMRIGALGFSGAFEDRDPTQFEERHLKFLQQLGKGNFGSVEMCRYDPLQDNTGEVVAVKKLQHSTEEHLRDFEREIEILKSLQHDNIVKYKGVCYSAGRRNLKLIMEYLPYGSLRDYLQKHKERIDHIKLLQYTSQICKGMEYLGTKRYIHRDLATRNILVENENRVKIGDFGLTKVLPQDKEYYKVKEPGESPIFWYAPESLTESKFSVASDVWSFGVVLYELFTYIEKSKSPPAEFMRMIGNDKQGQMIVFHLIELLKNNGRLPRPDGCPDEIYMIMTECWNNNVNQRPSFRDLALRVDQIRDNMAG

TBK1 = TBK1 (Homo sapiens (Human), UniProt Q9UHD2); test: TBK1 TR-FRET enzymatic assay;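 note: phosphorylation of a biotinylated Ser/Thr peptide by purified full-length recombinant TBK1, read by TR-FRET after 240 min at 25 °C, IC50 is the geometric mean of at least four runs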
Chain of TBK1 (Q9UHD2 whole entry): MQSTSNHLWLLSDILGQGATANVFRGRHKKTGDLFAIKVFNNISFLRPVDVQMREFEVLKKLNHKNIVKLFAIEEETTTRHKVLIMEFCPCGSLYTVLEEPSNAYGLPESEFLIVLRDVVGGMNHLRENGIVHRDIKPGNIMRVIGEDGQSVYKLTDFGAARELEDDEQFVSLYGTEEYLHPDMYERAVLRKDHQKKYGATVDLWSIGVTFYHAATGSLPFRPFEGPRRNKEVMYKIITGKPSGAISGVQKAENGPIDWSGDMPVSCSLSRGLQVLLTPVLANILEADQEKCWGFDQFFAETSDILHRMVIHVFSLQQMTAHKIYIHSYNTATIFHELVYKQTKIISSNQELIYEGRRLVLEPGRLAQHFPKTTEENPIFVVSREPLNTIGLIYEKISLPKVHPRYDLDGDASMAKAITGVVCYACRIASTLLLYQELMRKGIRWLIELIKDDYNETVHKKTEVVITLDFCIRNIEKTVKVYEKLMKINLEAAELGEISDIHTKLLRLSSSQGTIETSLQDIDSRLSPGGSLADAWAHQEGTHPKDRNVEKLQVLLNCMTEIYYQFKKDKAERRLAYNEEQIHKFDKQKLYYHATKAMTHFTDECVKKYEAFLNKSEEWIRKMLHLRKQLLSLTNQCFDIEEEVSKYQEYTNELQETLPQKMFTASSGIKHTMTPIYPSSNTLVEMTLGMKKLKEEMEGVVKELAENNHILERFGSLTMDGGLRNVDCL

[1] = TR-FRET, 2×Km ATP, geometric mean of minimum four determinations

Chain of IKKε (Q14164 whole entry): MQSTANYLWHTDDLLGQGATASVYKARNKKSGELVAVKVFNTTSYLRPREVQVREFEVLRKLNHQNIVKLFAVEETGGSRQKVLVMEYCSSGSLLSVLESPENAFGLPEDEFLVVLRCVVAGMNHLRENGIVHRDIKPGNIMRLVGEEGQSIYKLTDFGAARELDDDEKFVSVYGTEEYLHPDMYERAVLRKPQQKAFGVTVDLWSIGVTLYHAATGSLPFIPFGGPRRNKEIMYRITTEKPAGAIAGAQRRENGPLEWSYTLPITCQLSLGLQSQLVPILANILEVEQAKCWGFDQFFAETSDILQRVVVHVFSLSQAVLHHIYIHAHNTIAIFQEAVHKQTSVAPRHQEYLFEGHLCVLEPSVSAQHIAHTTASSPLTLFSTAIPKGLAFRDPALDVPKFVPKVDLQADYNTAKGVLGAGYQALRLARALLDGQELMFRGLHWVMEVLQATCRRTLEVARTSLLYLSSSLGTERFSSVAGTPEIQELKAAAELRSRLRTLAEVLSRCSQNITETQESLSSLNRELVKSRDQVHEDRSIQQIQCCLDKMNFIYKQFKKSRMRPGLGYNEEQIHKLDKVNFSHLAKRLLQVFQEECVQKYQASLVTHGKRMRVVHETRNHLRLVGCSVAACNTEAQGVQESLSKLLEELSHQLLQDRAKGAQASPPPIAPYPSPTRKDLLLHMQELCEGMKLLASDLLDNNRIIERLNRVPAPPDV

IC50 (IKKε)	IC50 (hJAK2)	IC50 (TBK1)	IC50 (IKKε; [1])	SMILES
1 nM	219 nM	2 nM	–	N#Cc1cc(-c2ncnc(Nc3ccc(N4CCN(C5COC5)CC4)cc3)n2)ccc1O[C@H]1CCN(C(=O)c2ccn[nH]2)C[C@H]1F [Example 145, 2-(((3R,4S)-3-fluoro-1-(1H-pyrazole-5-carbonyl)piperidin-4-yl)oxy)-5-(4-((4-(4-(oxetan-3-yl)piperazin-1-yl)phenyl)amino)-1,3,5-triazin-2-yl)benzonitrile]
≥ 1000 nM	≥ 1000 nM	1000 nM	–	N#Cc1cc(-c2ncnc(Nc3ccc(N4CCN(C5COC5)CC4)cc3)n2)ccc1O[C@H]1CCN(c2cccnc2)C[C@H]1F [Example 611, 2-(((3R,4S)-3-fluoro-1-(pyridin-3-yl)piperidin-4-yl)oxy)-5-(4-((4-(4-(oxetan-3-yl)piperazin-1-yl)phenyl)amino)-1,3,5-triazin-2-yl)benzonitrile]
> 1000 nM	212 nM	79 nM	–	COc1cc(C#N)cc(-c2ncnc(Nc3ccc(N4CCN(C5COC5)CC4)cc3)n2)c1 [Example 105, 3-methoxy-5-(4-((4-(4-(oxetan-3-yl)piperazin-1-yl)phenyl)amino)-1,3,5-triazin-2-yl)benzonitrile]
14 nM	604 nM	8 nM	–	CC(C)NC(=O)c1ccc(Nc2ncnc(-c3ccc(O[C@@H]4CCN(C(=O)CO)C4)c(C#N)c3)n2)cc1 [Example 83, (R)-4-((4-(3-cyano-4-((1-(2-hydroxyacetyl)pyrrolidin-3-yl)oxy)phenyl)-1,3,5-triazin-2-yl)amino)-N-isopropylbenzamide]
–	163 nM	3 nM	3 nM	N#Cc1cc(-c2ncnc(Nc3ccc(N4CCN(C5COC5)CC4)cc3)n2)ccc1O[C@H]1CCN(C(=O)C2CNC(=O)N2)C[C@H]1F (stereo partly drawn) [Example 414, 2-(((3R,4S)-3-fluoro-1-(2-oxoimidazolidine-4-carbonyl)piperidin-4-yl)oxy)-5-(4-((4-(4-(oxetan-3-yl)piperazin-1-yl)phenyl)amino)-1,3,5-triazin-2-yl)benzonitrile]
13 nM	234 nM	8 nM	–	CC1(C)CN(C(=O)CO)C[C@@H](F)[C@H]1Oc1ccc(-c2ncnc(Nc3ccc(N4CCN(C5COC5)CC4)cc3)n2)cc1C#N (single isomer, unassigned) [Example 179]
3 nM	117 nM	6 nM	–	CC1(C)CN(C(=O)CO)CC(F)C1Oc1ccc(-c2ncnc(Nc3ccc(N4CCN(C5COC5)CC4)cc3)n2)cc1C#N (stereo not drawn) [Example 177, 2-((5-fluoro-1-(2-hydroxyacetyl)-3,3-dimethylpiperidin-4-yl)oxy)-5-(4-((4-(4-(oxetan-3-yl)piperazin-1-yl)phenyl)amino)-1,3,5-triazin-2-yl)benzonitrile]
1 nM	119 nM	2 nM	–	C[C@H](O)C(=O)N1CC[C@H](Oc2ccc(-c3ncnc(Nc4ccc(N5CCN(C6COC6)CC5)c(OC(F)F)c4)n3)cc2C#N)[C@H](F)C1 [Example 395, 5-(4-((3-(difluoromethoxy)-4-(4-(oxetan-3-yl)piperazin-1-yl)phenyl)amino)-1,3,5-triazin-2-yl)-2-(((3R,4S)-3-fluoro-1-((S)-2-hydroxypropanoyl)piperidin-4-yl)oxy)benzonitrile]
–	212 nM	4 nM	2 nM	Cc1nnc(C(=O)N2CC[C@H](Oc3ccc(-c4ncnc(Nc5cnn(C(C)(C)C)c5)n4)cc3C#N)[C@H](F)C2)[nH]1 [Example 418, 5-(4-((1-(tert-butyl)-1H-pyrazol-4-yl)amino)-1,3,5-triazin-2-yl)-2-(((3R,4S)-3-fluoro-1-(5-methyl-4H-1,2,4-triazole-3-carbonyl)piperidin-4-yl)oxy)benzonitrile]
–	≥ 1000 nM	47 nM	180 nM	N#Cc1cc(-c2ncnc(Nc3ccc(N4CCN(C5COC5)CC4)cc3)n2)ccc1O[C@H]1CCN(c2ccccn2)C[C@H]1F [Example 480, 2-(((3R,4S)-3-fluoro-1-(pyridin-2-yl)piperidin-4-yl)oxy)-5-(4-((4-(4-(oxetan-3-yl)piperazin-1-yl)phenyl)amino)-1,3,5-triazin-2-yl)benzonitrile]
2 nM	474 nM	4 nM	–	C[C@H](O)C(=O)N1CC[C@H](Oc2ccc(-c3ncnc(Nc4ccc(N5CCC6(CC5)COC6)cc4)n3)cc2C#N)[C@H](F)C1 [Example 365, 5-(4-((4-(2-oxa-7-azaspiro[3.5]nonan-7-yl)phenyl)amino)-1,3,5-triazin-2-yl)-2-(((3R,4S)-3-fluoro-1-((S)-2-hydroxypropanoyl)piperidin-4-yl)oxy)benzonitrile]
4 nM	459 nM	8 nM	–	CN1CCN(c2ccc(Nc3ncnc(-c4ccc(O[C@@H]5CCN(C(=O)CO)C5)c(C#N)c4)n3)cc2)CC1 [Example 86, (R)-2-((1-(2-hydroxyacetyl)pyrrolidin-3-yl)oxy)-5-(4-((4-(4-methylpiperazin-1-yl)phenyl)amino)-1,3,5-triazin-2-yl)benzonitrile]
12 nM	> 1000 nM	10 nM	–	N#Cc1cc(Nc2ncnc(-c3ccc(OC4CCOCC4)c(C#N)c3)n2)ccc1OC1CCOCC1 [Example 36, 5-((4-(3-cyano-4-((tetrahydro-2H-pyran-4-yl)oxy)phenyl)-1,3,5-triazin-2-yl)amino)-2-((tetrahydro-2H-pyran-4-yl)oxy)benzonitrile]
277 nM	≥ 1000 nM	103 nM	–	C[C@@H]1C[C@@H](Oc2ccc(-c3ncnc(Nc4ccc(N5CCN(C6COC6)CC5)cc4)n3)cc2C#N)CCN1C(=O)[C@@H](C)O [Example 184, 2-(((2R,4S)-1-((R)-2-hydroxypropanoyl)-2-methylpiperidin-4-yl)oxy)-5-(4-((4-(4-(oxetan-3-yl)piperazin-1-yl)phenyl)amino)-1,3,5-triazin-2-yl)benzonitrile]
6 nM	> 1000 nM	4 nM	–	COc1cc(Nc2ncnc(-c3ccc(OC4CCOCC4)c(C#N)c3)n2)ccc1C(N)=O [Example 21, 4-((4-(3-cyano-4-((tetrahydro-2H-pyran-4-yl)oxy)phenyl)-1,3,5-triazin-2-yl)amino)-2-methoxybenzamide]
–	90 nM	5 nM	5 nM	CC1(C)CN(C(=O)[C@@H]2CCC(=O)N2)C[C@@H](F)[C@H]1Oc1ccc(-c2ncnc(Nc3ccc(N4CCN(C5COC5)CC4)cc3)n2)cc1C#N [Example 445, 2-(((4S,5R)-5-fluoro-3,3-dimethyl-1-((S)-5-oxopyrrolidine-2-carbonyl)piperidin-4-yl)oxy)-5-(4-((4-(4-(oxetan-3-yl)piperazin-1-yl)phenyl)amino)-1,3,5-triazin-2-yl)benzonitrile]
3 nM	171 nM	1 nM	–	C[C@@H](O)C(=O)N1CC[C@H](Oc2ccc(-c3ncnc(Nc4ccc(N5CCN(C6COC6)CC5)cc4)n3)cc2C#N)C(F)(F)C1 (single isomer, unassigned) [Example 158]
3 nM	453 nM	4 nM	–	CN1CCC(c2ccc(Nc3ncnc(-c4ccc(O[C@H]5CCOC[C@H]5F)c(C#N)c4)n3)cc2)CC1 [Example 300, 2-(((3R,4S)-3-fluorotetrahydro-2H-pyran-4-yl)oxy)-5-(4-((4-(1-methylpiperidin-4-yl)phenyl)amino)-1,3,5-triazin-2-yl)benzonitrile]
